# Measured values as given in patent US4344939A, “Penicillin 1,1-dioxides, compositions thereof and methods of use” (Bayer Aktiengesellschaft, priority 1979, dated 1982).
# How the values were obtained:
# Type in all cases: cell-based
# [1] = test system: Staphylococcus aureus 133; assay: in vitro turbidity test in Muller-Hinton nutrient broth; settings: dosage of 1 μg/ml; 1×10^5 to 2×10^5 bacteria per ml; 0.1% glucose; incubated 24 hours
# Procedure: […] In each case, the nutrient solution contained 1×10^5 to 2×10^5 bacteria per ml. The small tubes containing this batch were each incubated for 24 hours and the degree of turbidity was then determined. Absence from turbidity indicates action.
# Klebsiella pneum. 1852 = assay: MIC, Table 1, Klebsiella pneum. 1852
# Description: (§1) The penicillanic acid 1,1-dioxide derivatives according to the invention inactivate, by inhibition or destruction, the bacterial enzymes which split the β-lactam ring (β-lactamases). The degradation of other penicillins, for example of amoxicillin, mezlocillin, ampicillin, azlocillin, penicillin G, carbenicillin and ticarcillin, is thereby prevented, and on the one hand their activity is thereby retained and on the other hand their spectrum of action is extended to bacteria which produce β-lactamase.
# [2] = test system: Staphylococcus aeureus 1756; assay: MIC, Table 1, Staphylococcus aureus 1756
# Description: as §1
# E. coli T 7 = assay: MIC, Table 1, E. coli T 7
# Description: as §1
SMILES,degree of turbidity (absence from turbidity indicates action) [1],MIC (Klebsiella pneum. 1852),MIC [2],MIC (E. coli T 7)
CCOC(OCC)(OCC)C(=O)N[C@@H]1C(=O)N2[C@@H](C(=O)O)C(C)(C)S(=O)(=O)[C@H]12 [Example 1],free from turbidity,> 256 E/ml,> 256 E/ml,
CC1(C)S[C@@H]2[C@H](NC(=O)[C@H](NC(=O)N3CCN(S(C)(=O)=O)C3=O)c3ccccc3)C(=O)N2[C@H]1C(=O)O [mezlocillin],,128 E/ml,256 E/ml,> 256 E/ml
